Source: ChEMBL document CHEMBL1201862, “PubChem BioAssay data set” (2004)
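A five-concentration, 48-hour dose response in 96-well plates underlies each endpoint, interpolated linearly between surrounding concentrations. GI50 marks 50% less growth.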 Active and inactive are the calls of the source. No stated cut-off is given here; in the data, active = GI50 up to about 1.1 µM and inactive = higher.

Columns and labels:
Assay in all cases: inhibition of tumour cell growth, NCI panel, 48 h
[1] = test system: IGROV-1
[2] = test system: SK-MEL-5
[3] = test system: SF-295
[4] = test system: HCT-116
[5] = test system: CCRF-CEM
[6] = test system: OVCAR-8
[7] = test system: RXF 393
[8] = test system: HT-29
[9] = test system: OVCAR-4
[10] = test system: M14
[11] = test system: MDA-MB-231
[12] = test system: KM12
[13] = test system: MDA-MB-435
[14] = test system: UACC-62
[15] = test system: NCI/ADR-RES
[16] = test system: A549
[17] = test system: Hs-578T
[18] = test system: SW-620
[19] = test system: K562
[20] = test system: SK-OV-3

Compound: O=C(Cn1ccnc1[N+](=O)[O-])N(CCO)CCO
- GI50 [1]: > 250 µM (inactive)
- GI50 [2]: > 141 µM (inactive)
- GI50 [3]: > 250 µM (inactive)
- GI50 [4]: > 250 µM (inactive)
- GI50 [5]: > 250 µM (inactive)
- GI50 [6]: > 250 µM (inactive)
- GI50 [7]: > 250 µM (inactive)
- GI50 [8]: > 250 µM (inactive)
- GI50 [9]: > 250 µM (inactive)
- GI50 [10]: > 250 µM (inactive)
- GI50 [11]: > 250 µM (inactive)
- GI50 [12]: > 250 µM (inactive)
- GI50 [13]: > 250 µM (inactive)
- GI50 [14]: > 250 µM (inactive)
- GI50 [15]: > 250 µM (inactive)
- GI50 [16]: > 250 µM (inactive)
- GI50 [17]: > 250 µM (inactive)
- GI50 [18]: > 250 µM (inactive)
- GI50 [19]: > 250 µM (inactive)
- GI50 [20]: > 250 µM (inactive)

Compound: Cc1ccc2c(C(=O)c3c(C)n(CCN4CCOCC4)c4ccccc34)cccc2c1
- GI50 [1]: 19.3 µM (inactive)
- GI50 [2]: 0.581 µM (active)
- GI50 [3]: 7.45 µM (inactive)
- GI50 [4]: 7.18 µM (inactive)
- GI50 [5]: 1.79 µM (inactive)
- GI50 [6]: 10.8 µM (inactive)
- GI50 [7]: 13.9 µM (inactive)
- GI50 [8]: 11.2 µM (inactive)
- GI50 [9]: 15.4 µM (inactive)
- GI50 [10]: 16.3 µM (inactive)
- GI50 [11]: 17.3 µM (inactive)
- GI50 [12]: 16.3 µM (inactive)
- GI50 [13]: 2.29 µM (inactive)
- GI50 [14]: 14.3 µM (inactive)
- GI50 [15]: 12.4 µM (inactive)
- GI50 [16]: 24.4 µM (inactive)
- GI50 [17]: 4.14 µM (inactive)
- GI50 [18]: 0.685 µM (active)
- GI50 [19]: 1.36 µM (inactive)
- GI50 [20]: 12.8 µM (inactive)

Compound: O=C(NCCc1ccccc1)[C@H]1CCCC[C@@H]1CCO
- GI50 [1]: > 100 µM (inactive)
- GI50 [2]: > 100 µM (inactive)
- GI50 [3]: > 100 µM (inactive)
- GI50 [4]: > 100 µM (inactive)
- GI50 [5]: > 100 µM (inactive)
- GI50 [6]: > 100 µM (inactive)
- GI50 [7]: > 100 µM (inactive)
- GI50 [8]: > 100 µM (inactive)
- GI50 [9]: > 100 µM (inactive)
- GI50 [10]: > 100 µM (inactive)
- GI50 [11]: > 100 µM (inactive)
- GI50 [12]: > 100 µM (inactive)
- GI50 [13]: > 100 µM (inactive)
- GI50 [14]: > 100 µM (inactive)
- GI50 [15]: > 100 µM (inactive)
- GI50 [16]: > 100 µM (inactive)
- GI50 [17]: > 100 µM (inactive)
- GI50 [18]: > 100 µM (inactive)
- GI50 [19]: > 100 µM (inactive)
- GI50 [20]: > 100 µM (inactive)

Compound: CCN(CC)C(=O)N[C@@H](CC(C)C)C(=O)NC
- GI50 [1]: > 100 µM (inactive)
- GI50 [2]: > 100 µM (inactive)
- GI50 [3]: > 100 µM (inactive)
- GI50 [4]: > 100 µM (inactive)
- GI50 [5]: > 100 µM (inactive)
- GI50 [6]: > 100 µM (inactive)
- GI50 [7]: > 100 µM (inactive)
- GI50 [8]: > 100 µM (inactive)
- GI50 [9]: > 100 µM (inactive)
- GI50 [10]: > 100 µM (inactive)
- GI50 [11]: > 100 µM (inactive)
- GI50 [12]: > 100 µM (inactive)
- GI50 [13]: > 100 µM (inactive)
- GI50 [14]: > 100 µM (inactive)
- GI50 [15]: > 100 µM (inactive)
- GI50 [16]: > 100 µM (inactive)
- GI50 [17]: > 100 µM (inactive)
- GI50 [18]: > 100 µM (inactive)
- GI50 [19]: > 100 µM (inactive)
- GI50 [20]: > 100 µM (inactive)

Compound: O=C(ON=c1c2ccccc2ccc2ccccc12)c1cc([N+](=O)[O-])cc([N+](=O)[O-])c1
- GI50 [1]: > 100 µM (inactive)
- GI50 [2]: 50.5 µM (inactive)
- GI50 [3]: 43.8 µM (inactive)
- GI50 [4]: 87.3 µM (inactive)
- GI50 [5]: 25.5 µM (inactive)
- GI50 [6]: 94.8 µM (inactive)
- GI50 [7]: > 100 µM (inactive)
- GI50 [8]: 94.4 µM (inactive)
- GI50 [9]: 38.2 µM (inactive)
- GI50 [10]: > 100 µM (inactive)
- GI50 [11]: > 100 µM (inactive)
- GI50 [12]: 49 µM (inactive)
- GI50 [13]: > 100 µM (inactive)
- GI50 [14]: 63.4 µM (inactive)
- GI50 [15]: 48.4 µM (inactive)
- GI50 [16]: 49.8 µM (inactive)
- GI50 [17]: 76.7 µM (inactive)
- GI50 [18]: > 100 µM (inactive)
- GI50 [19]: 21.8 µM (inactive)
- GI50 [20]: > 100 µM (inactive)

Compound: CC/C(=N\NC(=O)c1cccnc1)c1ccc2c(c1)OCCO2
- GI50 [1]: > 100 µM (inactive)
- GI50 [2]: 33.7 µM (inactive)
- GI50 [3]: > 100 µM (inactive)
- GI50 [4]: > 100 µM (inactive)
- GI50 [5]: > 100 µM (inactive)
- GI50 [6]: > 100 µM (inactive)
- GI50 [7]: > 100 µM (inactive)
- GI50 [8]: > 100 µM (inactive)
- GI50 [9]: > 100 µM (inactive)
- GI50 [10]: > 100 µM (inactive)
- GI50 [11]: 74.8 µM (inactive)
- GI50 [12]: 96.6 µM (inactive)
- GI50 [13]: 34.5 µM (inactive)
- GI50 [14]: 87.9 µM (inactive)
- GI50 [15]: > 100 µM (inactive)
- GI50 [16]: > 100 µM (inactive)
- GI50 [17]: 12.4 µM (inactive)
- GI50 [18]: > 100 µM (inactive)
- GI50 [19]: 76 µM (inactive)
- GI50 [20]: > 100 µM (inactive)

Compound: COC(=O)/C=C\C(C#N)(C#N)/N=C/c1ccc(Br)s1
- GI50 [1]: 14.9 µM (inactive)
- GI50 [2]: 11.9 µM (inactive)
- GI50 [3]: 17.7 µM (inactive)
- GI50 [4]: 4.89 µM (inactive)
- GI50 [5]: 0.853 µM (active)
- GI50 [6]: 3.98 µM (inactive)
- GI50 [7]: 2.03 µM (inactive)
- GI50 [8]: 2.35 µM (inactive)
- GI50 [9]: 6.61 µM (inactive)
- GI50 [10]: 3.1 µM (inactive)
- GI50 [11]: 2.18 µM (inactive)
- GI50 [12]: 16.3 µM (inactive)
- GI50 [13]: 5.56 µM (inactive)
- GI50 [14]: 10.7 µM (inactive)
- GI50 [15]: 18.6 µM (inactive)
- GI50 [16]: 21.2 µM (inactive)
- GI50 [17]: 25.3 µM (inactive)
- GI50 [18]: 2.07 µM (inactive)
- GI50 [19]: 4.3 µM (inactive)
- GI50 [20]: 19.2 µM (inactive)

Compound: COC(=O)c1cccc2c1Oc1ccccc1S2
- GI50 [1]: 56.2 µM (inactive)
- GI50 [2]: 18.9 µM (inactive)
- GI50 [3]: 60.8 µM (inactive)
- GI50 [4]: 47.1 µM (inactive)
- GI50 [5]: 23.4 µM (inactive)
- GI50 [6]: 74.3 µM (inactive)
- GI50 [7]: 33 µM (inactive)
- GI50 [8]: 25.9 µM (inactive)
- GI50 [9]: 66.4 µM (inactive)
- GI50 [10]: > 100 µM (inactive)
- GI50 [11]: 38.7 µM (inactive)
- GI50 [12]: 12 µM (inactive)
- GI50 [13]: > 100 µM (inactive)
- GI50 [14]: > 100 µM (inactive)
- GI50 [15]: 34.4 µM (inactive)
- GI50 [16]: 75.2 µM (inactive)
- GI50 [17]: 40.6 µM (inactive)
- GI50 [18]: 59.6 µM (inactive)
- GI50 [19]: 57.9 µM (inactive)
- GI50 [20]: > 100 µM (inactive)

Compound: NS(=O)(=O)c1nnc(NC(=S)NC(=O)Nc2ccc(Cl)c(Cl)c2)s1
- GI50 [1]: 17.2 µM (inactive)
- GI50 [2]: 21.2 µM (inactive)
- GI50 [3]: 21.2 µM (inactive)
- GI50 [4]: 16.9 µM (inactive)
- GI50 [5]: 28.1 µM (inactive)
- GI50 [6]: 22.1 µM (inactive)
- GI50 [7]: 19.1 µM (inactive)
- GI50 [8]: 25.5 µM (inactive)
- GI50 [9]: 19.5 µM (inactive)
- GI50 [10]: 17.9 µM (inactive)
- GI50 [11]: 30.4 µM (inactive)
- GI50 [12]: 18.7 µM (inactive)
- GI50 [13]: 19.4 µM (inactive)
- GI50 [14]: 17.5 µM (inactive)
- GI50 [15]: 25.4 µM (inactive)
- GI50 [16]: 32 µM (inactive)
- GI50 [17]: 24.3 µM (inactive)
- GI50 [18]: 22.5 µM (inactive)
- GI50 [19]: 30.4 µM (inactive)
- GI50 [20]: 20.7 µM (inactive)

Compound: CC1(C)OC2C(O)CN3CCS[C@H]3C2O1 (stereo not given in full)
- GI50 [1]: > 100 µM (inactive)
- GI50 [2]: > 100 µM (inactive)
- GI50 [3]: > 100 µM (inactive)
- GI50 [4]: > 100 µM (inactive)
- GI50 [5]: > 100 µM (inactive)
- GI50 [6]: > 100 µM (inactive)
- GI50 [7]: > 100 µM (inactive)
- GI50 [8]: > 100 µM (inactive)
- GI50 [9]: > 100 µM (inactive)
- GI50 [10]: > 100 µM (inactive)
- GI50 [11]: > 100 µM (inactive)
- GI50 [12]: > 100 µM (inactive)
- GI50 [13]: > 100 µM (inactive)
- GI50 [14]: > 100 µM (inactive)
- GI50 [15]: > 100 µM (inactive)
- GI50 [16]: > 100 µM (inactive)
- GI50 [17]: > 100 µM (inactive)
- GI50 [18]: > 100 µM (inactive)
- GI50 [19]: > 100 µM (inactive)
- GI50 [20]: > 100 µM (inactive)
